Results as given in the supplement of paper PMC10307832.

What was measured:
Assay in all cases: relative viability (nuclei count vs DMSO), 5 days (fraction); higher = more cells survive
Tanzisertib + Foretinib = compound: O[C@H]1CC[C@H](Nc2ncc3nc(Nc4c(F)cc(F)cc4F)n([C@H]4CCOC4)c3n2)CC1 [Tanzisertib] + COc1cc2c(Oc3ccc(NC(=O)C4(C(=O)Nc5ccc(F)cc5)CC4)cc3F)ccnc2cc1OCCCN1CCOCC1 [Foretinib] (partner 0.25 µM)
Procedure, shortened: (§1)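 Values are medians from duplicate plates. Each reflects relative viability, defined as the nuclei count of treated wells over that of vehicle wells. Lung cancer cell lines in 1536-well plates were pin-tool dosed one day after seeding with one drug alone or with a fixed anchor-drug dose plus five library-drug doses (not always all listed) in √10 steps, then fixed, stained and imaged at 4× after 5 days.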

[1] = compound: C1CNCCC1C2=CC(=NN2)C3=CC=NC=C3 + C[C@]1(O)C[C@@H](c2nc(-c3ccc4ccc(-c5ccccc5)nc4c3)c3c(N)nccn32)C1 [Linsitinib] (partner 1 µM)
Procedure, shortened: as §1

[2] = compound: C[C@@H](N)c1ccc(C(=O)Nc2ccnc3[nH]ccc23)cc1 + CC1(C)CCC(c2ccc(Cl)cc2)=C(CN2CCN(c3ccc(C(=O)NS(=O)(=O)c4ccc(N[C@H](CCN5CCOCC5)CSc5ccccc5)c(S(=O)(=O)C(F)(F)F)c4)cc3)CC2)C1 [Navitoclax] (partner 0.5 µM)
Procedure, shortened: as §1

Tanzisertib + Alpelisib = compound: O[C@H]1CC[C@H](Nc2ncc3nc(Nc4c(F)cc(F)cc4F)n([C@H]4CCOC4)c3n2)CC1 [Tanzisertib] + Cc1nc(NC(=O)N2CCC[C@H]2C(N)=O)sc1-c1ccnc(C(C)(C)C(F)(F)F)c1 [Alpelisib] (partner 2 µM)
Procedure, shortened: as §1

Cell Line	relative viability (Tanzisertib + Foretinib; first compound 0.08 µM)	relative viability (Tanzisertib + Foretinib; first compound 0.253 µM)	relative viability (Tanzisertib + Foretinib; first compound 0.8 µM)	relative viability (Tanzisertib + Foretinib; first compound 2.53 µM)	relative viability (Tanzisertib + Foretinib; first compound 8 µM)	relative viability ([1]; first compound 0.08 µM)	relative viability ([1]; first compound 0.8 µM)	relative viability ([1]; first compound 2.53 µM)	relative viability ([1]; first compound 8 µM)	relative viability ([2]; first compound 0.04 µM)	relative viability ([2]; first compound 0.1265 µM)	relative viability ([2]; first compound 0.4 µM)	relative viability ([2]; first compound 4 µM)	relative viability (Tanzisertib + Alpelisib; first compound 0.08 µM)	relative viability (Tanzisertib + Alpelisib; first compound 0.253 µM)	relative viability (Tanzisertib + Alpelisib; first compound 0.8 µM)	relative viability (Tanzisertib + Alpelisib; first compound 2.53 µM)	relative viability (Tanzisertib + Alpelisib; first compound 8 µM)	relative viability ([2]; first compound 1.265 µM)
SW 900	1.02	0.784	1.07	0.924	0.787	–	–	–	–	–	–	–	–	–	–	–	–	–	–
NCI-H1944	0.957	0.936	0.855	0.928	0.822	1.14	1.08	1.25	1.1	1.05	1.01	1.06	0.876	0.876	0.822	0.822	0.789	0.758	–
NCI-H727	0.88	1.02	0.662	0.936	0.91	0.362	0.338	0.294	0.21	0.524	0.579	0.676	0.411	0.511	0.463	0.654	0.515	0.684	0.484
NCI-H1650	1.3	0.984	1.07	1.15	0.776	–	–	–	–	1.35	1.3	1.4	0.863	–	–	–	–	–	1.45
HCC-827	1.13	1.1	1.07	0.814	0.389	0.992	0.963	1.05	0.956	0.872	0.993	0.971	0.843	1.08	0.97	0.946	0.895	0.391	1.05
HCC-366	0.917	0.918	0.922	0.975	0.917	0.55	0.756	0.712	0.622	1.04	1.15	1.16	0.923	0.438	0.346	0.295	0.377	0.287	–
HARA	0.817	0.925	0.86	0.889	0.74	0.938	1.07	0.983	0.939	1.14	1.2	1.19	0.889	0.752	0.762	0.852	0.795	0.842	1.27
NCI-H322M	1.02	0.962	0.886	0.961	0.97	0.874	0.71	0.899	0.888	1.2	1.21	1.36	1.55	0.935	0.648	0.774	0.669	0.776	–
LXF-289	1.02	1.01	1.06	0.989	1.03	0.963	1.04	0.981	0.9	1.01	0.915	1.02	0.876	1.06	1.02	1.05	1.04	1.11	1.07
PC-3 [JPC-3]	1.07	1.06	1.08	1.06	0.889	0.913	0.975	0.936	0.896	0.833	0.866	0.907	0.798	1.05	1.07	1.12	1.03	0.972	0.897
CAL-12T	1.11	1.13	1.05	1.25	1.07	0.792	0.754	0.9	0.872	1.3	1.33	1.48	1.47	1.32	1.14	1.09	1.4	1.17	1.77
COR-L 105	0.99	1.03	1.32	1.27	0.719	0.986	0.896	0.965	0.926	0.795	0.74	0.783	0.519	1.19	0.832	1.07	1.09	0.924	0.769
NCI-H2347	1.12	0.792	0.95	1.25	0.629	0.916	0.961	1.06	0.936	0.806	0.86	0.846	0.752	1.17	1.04	1.1	1.16	1.11	0.89
NCI-H2126	1.24	1.21	1.15	1.19	1.12	0.718	0.636	0.789	0.748	0.885	0.824	0.908	0.816	0.775	0.749	0.749	0.725	0.736	0.885
NCI-H838	1.1	1.01	1.11	1.02	0.937	0.969	1.05	1.07	0.983	1.08	1.1	0.84	0.524	1.02	1	0.92	0.965	0.973	0.714
A549	0.98	0.951	0.97	0.87	0.839	0.509	0.556	0.696	0.729	1.23	1.31	1.18	0.714	0.759	0.648	0.709	0.706	0.712	1.21
NCI-H2342	1.21	0.977	1.03	0.982	1.08	–	–	–	–	–	–	–	–	–	–	–	–	–	–
NCI-H1623	0.956	0.815	0.912	0.834	0.788	–	–	–	–	–	–	–	–	–	–	–	–	–	–
SK-LU-1	0.837	0.755	0.807	0.815	0.781	1.05	1.07	1.19	1.23	0.922	0.786	0.778	0.503	1.15	0.976	1.12	1.23	0.912	0.633
NCI-H2085	0.893	1.11	1.14	1.03	1.05	0.975	0.732	1.1	0.95	1.23	1.14	1.19	1	0.997	0.96	0.966	0.948	1.01	1.09

Cell Line	relative viability (Tanzisertib + Foretinib; first compound 0.08 µM)	relative viability (Tanzisertib + Foretinib; first compound 0.253 µM)	relative viability (Tanzisertib + Foretinib; first compound 0.8 µM)	relative viability (Tanzisertib + Foretinib; first compound 2.53 µM)	relative viability (Tanzisertib + Foretinib; first compound 8 µM)	relative viability ([1]; first compound 0.08 µM)	relative viability ([1]; first compound 0.8 µM)	relative viability ([1]; first compound 2.53 µM)	relative viability ([1]; first compound 8 µM)	relative viability ([2]; first compound 0.04 µM)	relative viability ([2]; first compound 0.1265 µM)	relative viability ([2]; first compound 0.4 µM)	relative viability ([2]; first compound 4 µM)	relative viability (Tanzisertib + Alpelisib; first compound 0.08 µM)	relative viability (Tanzisertib + Alpelisib; first compound 0.253 µM)	relative viability (Tanzisertib + Alpelisib; first compound 0.8 µM)	relative viability (Tanzisertib + Alpelisib; first compound 2.53 µM)	relative viability (Tanzisertib + Alpelisib; first compound 8 µM)	relative viability ([2]; first compound 1.265 µM)
NCI-H460	1.05	1.03	0.884	1.07	1.01	0.421	1.22	0.818	0.849	1.16	1.08	1.22	0.825	0.716	0.441	0.477	0.356	0.286	1.14
Calu-6	0.955	0.951	0.799	0.841	0.789	0.877	0.941	0.994	0.884	0.849	1.02	0.855	0.678	1.12	0.96	0.934	0.994	0.988	0.836
RERF-LC-KJ	0.929	0.788	0.873	0.841	0.842	0.925	0.931	0.903	0.903	0.962	0.99	1.42	0.95	0.819	0.754	0.918	0.777	0.719	1.1
LCLC-103H	0.79	0.784	0.806	0.71	0.765	1.07	0.846	1.1	0.951	–	–	–	–	0.983	0.94	0.965	0.981	0.923	–
HCC-15	1.13	1.05	1.11	1.02	1.08	0.809	0.903	0.937	0.905	0.712	0.689	0.738	0.645	1.04	0.884	0.924	0.874	0.797	–
H3255	0.729	0.77	0.831	0.841	0.696	0.858	1.13	0.957	0.993	0.554	0.846	0.769	0.45	0.739	0.718	0.665	0.629	0.471	0.575
NCI-H1792	–	–	–	–	–	0.521	0.514	0.566	0.534	0.668	0.592	0.644	0.567	0.677	0.647	0.737	0.665	0.671	0.415
NCI-H1563	0.983	0.854	0.896	0.96	0.72	0.868	1.13	1.24	1.25	–	–	–	–	0.92	0.935	0.875	0.862	0.977	–
NCI-H596	0.723	0.82	0.724	0.699	0.76	0.894	1.12	1.03	1.03	1.01	1.2	0.96	0.955	0.539	0.448	0.421	0.407	0.471	1.06
NCI-H2087	1.23	0.992	1.12	1.06	1.09	1.04	1.09	0.973	0.96	0.911	0.917	0.903	0.855	1.27	1.22	1.24	1.11	1.32	0.903
NCI-H661	1.07	0.999	1	1.04	0.995	0.534	0.524	0.528	0.584	–	–	–	–	0.84	0.716	0.561	0.527	0.412	–
EMC-BAC-2	1.04	0.937	0.988	0.969	0.966	0.78	0.806	0.818	0.771	1.28	1.18	1.21	0.977	0.78	0.754	0.725	0.688	0.688	1.4
NCI-H1355	1.03	0.961	0.965	1.04	0.948	0.868	0.71	0.891	0.797	1.01	0.986	1.04	0.748	0.838	0.871	0.886	0.864	0.881	–
HCC-44	–	–	–	–	–	0.66	0.595	0.698	0.684	0.979	0.99	1.15	0.698	0.839	0.834	0.852	0.768	0.75	0.946
NCI-H650	0.979	1.07	1.04	1.09	1.08	0.751	0.727	1.06	0.75	–	–	–	–	1.1	1.19	1.18	1.21	1.18	–
NCI-H358	0.774	0.589	0.694	0.73	0.442	0.595	0.792	0.688	0.765	–	–	–	–	0.902	0.762	0.922	0.717	0.635	–
ChaGo-K-1	0.969	0.982	0.861	0.94	0.891	–	–	–	–	1.07	1.01	1.19	0.891	–	–	–	–	–	–
ABC-1	0.91	1.14	0.909	0.876	0.706	0.702	0.644	0.685	1.01	–	–	–	–	1.1	1.06	1.03	1.3	1.09	–
NCI-H2170	1.02	1.01	0.954	1.06	0.984	–	–	–	–	0.682	0.564	0.57	0.479	0.98	0.787	0.796	0.779	0.809	0.61
